Laboratory results from patent US20190175646A1, “METHODS AND COMPOSITIONS RELATING TO THE TREATMENT OF BENIGN SKIN TUMORS” (THE GENERAL HOSPITAL CORPORATION D/B/A MASSACHUSETTS …, priority 2015, published 2019).

Tested on: SK cells
Assay: SK cell viability (Alamar blue absorbance assay)
Type: cell-based, human
Settings: indicated concentrations, 48 hours
Procedure: FIG. 1 depicts a graph in which SK cells were treated with DSF and CuCl2 (indicated concentrations) for 48 hours and relative cellular viability was measured using Alamar blue (absorbance based) assay. A443654 Akt inhibitor was used as a control.
FIG. 2 depicts a graph in which SK cells and normal human keratinocytes were treated with DSF and CuCl2 (indicated concentrations) for 48 hours and relative cellular viability was measured using Alamar blue (absorbance based) assay. A443654 Akt inhibitor was used as a control.
FIG. 4 depicts a graph of SK cell viability after treatment with DSF and/or Cu^2+. A443654 Akt inhibitor was used as a control.
FIG. 5 depicts a graph of SK cell viability after treatment with DSF and/or Zn^2+. A443654 Akt inhibitor was used as a control.
FIGS. 8 and 9 depict graphs of SK cell viability after treatment with pyrithione and/or Cu^2+. A443654 Akt inhibitor was used as a control. Cells from different donors were used for each experiment

COc1ccc(C2=N[C@@H](c3ccc(Cl)cc3)[C@@H](c3ccc(Cl)cc3)N2C(=O)N2CCNC(=O)C2)c(OC(C)C)c1 [nutlin-3a]
effect on SK cell viability: impair SK viability
